Here are results for 29 sequences from the supplement of paper PMC11208160.
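Note: IS621 bridge recombinase in Escherichia coli cells against a fixed T5 target plasmid.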

The series can be described thus: recombinant UMI read abundance after kanamycin selection (control-corrected) (log10(CPM+1)); higher = more efficient recombination; extreme values may be limits of the assay; sequences stand for … in AGTGCAGAGAAAATCGGCCAGTTTTCTCTGCCTGCAGTCCGCATGCCGTGGGACCCCTTGGGTTCTAACCTGTTGCCTAGATTTATGCAGCGGACTGCCTTTCTCCCAAAGTGATAAACCGG…AGGTTGGTTTCACT; site = the 11-nt donor. In a few lines:
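Pooled Escherichia coli screen of donor and donor-binding-loop pairs for the IS621 bridge recombinase. Each pair sits with a 12-nt UMI on a plasmid carrying a promoterless kanamycin gene. The library was co-electroporated with a target plasmid encoding a fixed target and T7-inducible recombinase, then plated with IPTG (0.07 mM) plus kanamycin, or unselected, each in two replicates. Recombinant UMIs were PCR-amplified across the donor–target junction and sequenced. Counts became CPM, averaged over replicates, scaled by control-derived factors and reported as log10(CPM+1).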
For the sequence “TCCTTGACATGGACCGGTTTTCCCGGTAATCCGTATTTGCT (site TACTTGACTAG)”, the “recombinant UMI read abundance (log10)” value was found to be 0.397.

In the case of “TCCTTGACATGGACCGGTTTTCCCGGTAATCCGTATTTGCT (site TCCTTGACTAG)”, the “recombinant UMI read abundance (log10)” value was found to be 0.

Take “TCCTTGACATGGACCGGTTTTCCCGGTAATCCGTATTTGCT (site TGCTTGACTAG)”: the “recombinant UMI read abundance (log10)” value is 0.

Regarding “TCCTTGACATGGACCGGTTTTCCCGGTAATCCGTATTTGCT (site TTCTTGACTAG)”, the “recombinant UMI read abundance (log10)” value was determined as 0.

For the sequence “TCGAAGCCATGGACCGGTTTTCCCGGTAATCCGTATTTGGG (site ACGAAGCCTCC)”, the “recombinant UMI read abundance (log10)” value worked out at 0.0545.

Take “TCGAAGCCATGGACCGGTTTTCCCGGTAATCCGTATTTGGG (site CCGAAGCCTCC)”: the “recombinant UMI read abundance (log10)” value worked out at 0.0131.

On to “TCGAAGCCATGGACCGGTTTTCCCGGTAATCCGTATTTGGG (site GCGAAGCCTCC)”, for which the “recombinant UMI read abundance (log10)” value came out at 0.0961.

On to “TCGAAGCCATGGACCGGTTTTCCCGGTAATCCGTATTTGGG (site TCGAAGCCTCC)”, for which the “recombinant UMI read abundance (log10)” value turned out to be 0.0129.

“TCGAATACATGGACCGGTTTTCCCGGTAATCCGTATTTGAG (site TCGAATACTCT)”: the “recombinant UMI read abundance (log10)” value amounted to 1.44.

Turning to “TCGACAGCATGGACCGGTTTTCCCGGTAATCCGTATTTGTA (site TCGACAGCTTA)”, the “recombinant UMI read abundance (log10)” value was 1.02.

Take “TCGACATCATGGACCGGTTTTCCCGGTAATCCGTATTTGCG (site TCGACATCTCG)”: the “recombinant UMI read abundance (log10)” value stood at 0.266.

Regarding “TCGACCGCATGGACCGGTTTTCCCGGTAATCCGTATTTGCG (site TCAACCGCTCG)”, the “recombinant UMI read abundance (log10)” value is 0.00755.

As to “TCGACCGCATGGACCGGTTTTCCCGGTAATCCGTATTTGCG (site TCCACCGCTCG)”, the “recombinant UMI read abundance (log10)” value was found to be 0.

As to “TCGACCGCATGGACCGGTTTTCCCGGTAATCCGTATTTGCG (site TCGACCGCTCG)”, the “recombinant UMI read abundance (log10)” value amounted to 0.0218.

Turning to “TCGACCGCATGGACCGGTTTTCCCGGTAATCCGTATTTGCG (site TCTACCGCTCG)”, the “recombinant UMI read abundance (log10)” value turned out to be 0.0287.

Consider “TCGACCTCATGGACCGGTTTTCCCGGTAATCCGTATTTGGA (site TCGACCTCTTC)”, for which the “recombinant UMI read abundance (log10)” value was 0.524.

For the sequence “TCGAGAGCATGGACCGGTTTTCCCGGTAATCCGTATTTGGC (site TCGAGAGCTGC)”, the “recombinant UMI read abundance (log10)” value worked out at 1.86.

With “TCGCACACATGGACCGGTTTTCCCGGTAATCCGTATTTGGG (site TCGCACACTCC)”, the “recombinant UMI read abundance (log10)” value was found to be 0.0145.

On to “TCGCAGACATGGACCGGTTTTCCCGGTAATCCGTATTTGCG (site TCGCAGACTCG)”, for which the “recombinant UMI read abundance (log10)” value worked out at 0.0105.

As for “TCGCAGCCATGGACCGGTTTTCCCGGTAATCCGTATTTGCT (site TCGCAGCCTAG)”, the “recombinant UMI read abundance (log10)” value was found to be 0.

Regarding “TCGCCATCATGGACCGGTTTTCCCGGTAATCCGTATTTGGC (site GAAGGCCCTAG)”, the “recombinant UMI read abundance (log10)” value worked out at 0.

For “TCGCGTACATGGACCGGTTTTCCCGGTAATCCGTATTTGGG (site TCGCGTACTCC)”, the “recombinant UMI read abundance (log10)” value is 0.0193.

For the sequence “TCGCTAGCATGGACCGGTTTTCCCGGTAATCCGTATTTGCT (site TCGCTAGCTAG)”, the “recombinant UMI read abundance (log10)” value came out at 0.

Turning to “TCGCTCTCATGGACCGGTTTTCCCGGTAATCCGTATTTGGC (site TCGCTCTCTGC)”, the “recombinant UMI read abundance (log10)” value stood at 0.

On to “TCGCTGACATGGACCGGTTTTCCCGGTAATCCGTATTTGTA (site TCGCTGACTTA)”, for which the “recombinant UMI read abundance (log10)” value worked out at 1.3.

For the sequence “TCGGACCCATGGACCGGTTTTCCCGGTAATCCGTATTTGGG (site TCGGACCCTCC)”, the “recombinant UMI read abundance (log10)” value came to 0.036.

Regarding “TCGGACCCATGGACCGGTTTTCCCGGTAATCCGTATTTGTT (site TCGGACCCTAA)”, the “recombinant UMI read abundance (log10)” value is 0.013.

Turning to “TCGGTAGCATGGACCGGTTTTCCCGGTAATCCGTATTTGTG (site TCGGTAGCTCA)”, the “recombinant UMI read abundance (log10)” value was 0.629.

Consider “TCGTACGCATGGACCGGTTTTCCCGGTAATCCGTATTTGCC (site TCGTACGCTGG)”, for which the “recombinant UMI read abundance (log10)” value stood at 0.
